Source: patent US12466832B2, “Monohydrate and crystalline forms of 6-[(3S,4S)-4-methyl-1-(pyrimidin-2-ylmethyl)pyrrolidin-3-yl]-3-tetrahydropyran-4-yl-7H-imidazo[1,5-a]pyrazin-8-one” (Cardurion Pharmaceuticals, Inc., priority 2018, dated 2025)

Assays:
Type in all cases: physicochemical
[1] = Solubility assessment of MH1 in solvents (HPLC of liquors, XRPD of isolated solids); conditions: for solubility at 24 h: organic solvent or mixture, thermodynamic from solid
Experimental: Procedure: Four solvents were chosen based on the competitive slurry experiments that favored MH1 as well as for diversity. Combinations of those solvents with water (aw=0.35) were also utilized to verify which hydrate is favored. Mixtures of the solvents with heptane (1:1) were used to check for crystal form with a good antisolvent.
MH1 (22×104 mg) was suspended in various solvents (11×0.5 ml) and stirred at either 5 or 50° C. for 24 hours at 750 rpm. The solids were isolated by filtration and centrifugation and the liquors were analysed by HPLC to determine their solubility (relative to a standard made up). The solids were also investigated by XRPD. This procedure was also followed for an additional five solvent systems comprising different ratios of THF:heptane and IPA:heptane at either 5 or 50° C. The isolated solids were investigated by XRPD, HPLC and ^1HNMR.

[2] = Gravimetric Vapour Sorption (GVS); conditions: 25° C., 0-90% RH
Experimental: Sorption isotherms were obtained using a SMS DVS Intrinsic moisture sorption analyzer, controlled by DVS Intrinsic Control software. The sample temperature was maintained at 25° C. by the instrument controls. The humidity was controlled by mixing streams of dry and wet nitrogen, with a total flow rate of 200 ml/min. The relative humidity was measured by a calibrated Rotronic probe (dynamic range of 1.0-100% RH), located near the sample. The weight change, (mass relaxation) of the sample as a function of % RH was constantly monitored by a microbalance (accuracy ±0.005 mg).
Typically, 5-30 mg of sample was placed in a tared mesh stainless steel basket under ambient conditions. The sample was loaded and unloaded at 40% RH and 25° C. (typical room conditions). A moisture sorption isotherm was performed as outlined below (2 scans per complete cycle). The standard isotherm was performed at 25° C. at 10% RH intervals over a 0-90% RH range. Typically, a double cycle (4 scans) was carried out. Data analysis was carried out within Microsoft Excel using the DVS Analysis Suite.
The sample was recovered after completion of the isotherm and re-analyzed by XRPD.

[3] = XRPD under vacuum
Experimental: For vacuum experiments the samples were prepared and analysed in an Anton Paar chromed sample holder. The measurement parameters are as per the standard screening data collection method (detailed above), at 25° C. with no vacuum (I2). A vacuum of around 50 mbar was then applied and the sample measured every 5 min until the anhydrate pattern was obtained for three consecutive measurements (to ensure complete dehydration, up to sample I8). The vacuum was then released and the sample analysed every 5 min for 6 measurements (until sample I22). The sample was then reanalyzed by XRPD after 1 h to check for complete rehydration.
MH1 was analysed at 25° C. with no vacuum. A vacuum of around 50 mbar was then applied and the sample measured every 5 min until the anhydrate pattern was obtained for three consecutive measurements (to ensure complete dehydration). The vacuum was then released and the sample analysed every 5 min for 6 measurements before the front of the sample stage was removed.
Procedure: A second batch of MH2 material was prepared using the same procedure. This sample was then analysed by VTXRPD and by XRPD under vacuum.

[4] = Ethanol:Heptane 1:1, 5° C., 24 hours
[5] = IPrOAc:0.5% water, 50° C., 24 hours
[6] = IPrOAc:Heptane 1:1, 5° C., 24 hours
[7] = IPrOAc:Heptane 1:1, 50° C., 24 hours
[8] = THF:0.8% water, 5° C., 24 hours
[9] = THF:Heptane 1:1, 5° C., 24 hours
[10] = THF:Heptane 1:1, 50° C., 24 hours

C[C@@H]1CN(Cc2ncccn2)C[C@H]1c1cn2c(C3CCOCC3)ncc2c(=O)[nH]1 [MH1, 6-[(3S,4S)-4-methyl-1-(pyrimidin-2-ylmethyl)pyrrolidin-3-yl]-3-tetrahydropyran-4-yl-7H-imidazo[1,5-a]pyrazin-8-one]
Solubility ([1]; Ethanol, 5° C., 24 hours): >200 mg/mL | Solubility ([1]; Ethanol, 50° C., 24 hours): >200 mg/mL | Solubility ([1]; Ethanol:4.2% water, 5° C., 24 hours): >200 mg/mL | XRPD (isolated solid) [1, 4]: MH1 + AH | XRPD (isolated solid) ([1]; Heptane, 5° C., 24 hours): MH1 | XRPD (isolated solid) ([1]; Heptane, 50° C., 24 hours): MH1 + AH | XRPD (isolated solid) ([1]; IPA, 5° C., 24 hours): MH1 + AH | Solubility ([1]; IPA, 50° C., 24 hours): >200 mg/mL | XRPD (isolated solid) ([1]; IPA:Heptane 1:1, 5° C.): MH1 | XRPD (isolated solid) ([1]; IPA:Heptane 1:2, 5° C.): MH1 | XRPD (isolated solid) ([1]; IPA:Heptane 1:2, 50° C.): MH1 | XRPD (isolated solid) ([1]; IPA:Heptane 1:3, 5° C.): MH1 | XRPD (isolated solid) ([1]; IPA:Heptane 1:3, 50° C.): MH1 | solubility at 24 h ([1]; IPrOAc with 0.5% water, IPrOAc:0.5% water, 5° C., 24 hours): 3.8 mg/mL | XRPD (isolated solid) ([1]; IPrOAc, 5° C., 24 hours): MH1 | XRPD (isolated solid) ([1]; IPrOAc, 50° C., 24 hours): MH1 + AH | XRPD (isolated solid) ([1]; IPrOAc:0.5% water, 5° C., 24 hours): MH2 | XRPD (isolated solid) [1, 5]: MH1 | XRPD (isolated solid) [1, 6]: MH1 | XRPD (isolated solid) [1, 7]: MH1 | XRPD (isolated solid) ([1]; THF, 5° C., 24 hours): MH2 + New peaks | Solubility ([1]; THF, 50° C., 24 hours): >200 mg/mL | XRPD (isolated solid) [1, 8]: MH2 | XRPD (isolated solid) [1, 9]: MH1 | XRPD (isolated solid) [1, 10]: MH1 | XRPD (isolated solid) ([1]; THF:Heptane 1:2, 5° C.): MH1 | XRPD (isolated solid) ([1]; THF:Heptane 1:2, 50° C.): MH1 | XRPD (isolated solid) ([1]; THF:Heptane 2:1, 5° C.): MH2 | XRPD (isolated solid) ([1]; THF:Heptane 2:1, 50° C.): MH1 | solubility at 24 h ([1]; ethanol with 4.2% water, Ethanol:4.2% water, 5° C., 24 hours): > 200 mg/mL | solubility at 24 h ([1]; Ethanol, 5° C., 24 hours): > 200 mg/mL | solubility at 24 h ([1]; Ethanol, 50° C., 24 hours): > 200 mg/mL | solubility at 24 h ([1]; Ethanol:4.2% water, 50° C., 24 hours): > 200 mg/mL | solubility at 24 h [1, 4]: 170 mg/mL | solubility at 24 h ([1]; Ethanol:Heptane 1:1, 50° C., 24 hours): > 200 mg/mL | solubility at 24 h ([1]; IPA, 5° C., 24 hours): 130 mg/mL | solubility at 24 h ([1]; IPA, 50° C., 24 hours): > 200 mg/mL | solubility at 24 h ([1]; IPA:Heptane 1:1, 5° C.): 40 mg/mL | solubility at 24 h ([1]; IPA:Heptane 1:1, 50° C.): > 200 mg/mL | solubility at 24 h ([1]; IPA:Heptane 1:2, 5° C.): 14 mg/mL | solubility at 24 h ([1]; IPA:Heptane 1:2, 50° C.): 19 mg/mL | solubility at 24 h ([1]; IPA:Heptane 1:3, 5° C.): 8 mg/mL | solubility at 24 h ([1]; IPA:Heptane 1:3, 50° C.): 10 mg/mL | solubility at 24 h ([1]; IPrOAc, 5° C., 24 hours): 11 mg/mL | solubility at 24 h ([1]; IPrOAc, 50° C., 24 hours): 6.3 mg/mL | solubility at 24 h [1, 5]: 5.6 mg/mL | solubility at 24 h [1, 6]: 1.9 mg/mL | solubility at 24 h [1, 7]: 2.1 mg/mL | solubility at 24 h ([1]; THF, 5° C., 24 hours): 79 mg/mL | solubility at 24 h ([1]; THF, 50° C., 24 hours): > 200 mg/mL | solubility at 24 h [1, 8]: 76 mg/mL | solubility at 24 h ([1]; THF:0.8% water, 50° C., 24 hours): > 200 mg/mL | solubility at 24 h [1, 9]: 6.3 mg/mL | solubility at 24 h [1, 10]: 11 mg/mL | solubility at 24 h ([1]; THF:Heptane 1:2, 5° C.): 0.33 mg/mL | solubility at 24 h ([1]; THF:Heptane 1:2, 50° C.): 0.62 mg/mL | solubility at 24 h ([1]; THF:Heptane 2:1, 5° C.): 17 mg/mL | solubility at 24 h ([1]; THF:Heptane 2:1, 50° C.): 21 mg/mL | GVS Max uptake [2]: Max uptake of 4.7%, no hysteresis, large step | TGA post vacuum XRPD mass loss [3]: 3.4% | Time to fully hydrated by XRPD after ambient air admitted ([3]; after vacuum released and front of sample stage taken off): 15 min | Time under vacuum to conversion to the anhydrate by XRPD ([3]; vacuum of around 50 mbar, 25° C.): 10 min
